Laboratory results published in paper PMC5714945, “A homologue of the Parkinson’s disease-associated protein LRRK2 undergoes a monomer-dimer transition during GTP turnover” (Nature Communications, 2017).

Key:
Type in all cases: binding
[1] = biological target: T1, CtRoc-COR (Chlorobaculum tepidum, UniProt Q8KC98, S928C, form not given); test: stopped-flow Cy3/Cy5 FRET, monomerization; details: 50 µM or 1 µM GTP, Cy3/Cy5-labelled protein, 25 °C
T1 construct: gene CT1526; Roc-COR domains, residues 412-946, N-terminal His-tag (pProEX), E. coli BL21(DE3); dimer nucleotide-free, about 65 kDa monomer
T1 sequence (Q8KC98 entry or part of it S928C, form open): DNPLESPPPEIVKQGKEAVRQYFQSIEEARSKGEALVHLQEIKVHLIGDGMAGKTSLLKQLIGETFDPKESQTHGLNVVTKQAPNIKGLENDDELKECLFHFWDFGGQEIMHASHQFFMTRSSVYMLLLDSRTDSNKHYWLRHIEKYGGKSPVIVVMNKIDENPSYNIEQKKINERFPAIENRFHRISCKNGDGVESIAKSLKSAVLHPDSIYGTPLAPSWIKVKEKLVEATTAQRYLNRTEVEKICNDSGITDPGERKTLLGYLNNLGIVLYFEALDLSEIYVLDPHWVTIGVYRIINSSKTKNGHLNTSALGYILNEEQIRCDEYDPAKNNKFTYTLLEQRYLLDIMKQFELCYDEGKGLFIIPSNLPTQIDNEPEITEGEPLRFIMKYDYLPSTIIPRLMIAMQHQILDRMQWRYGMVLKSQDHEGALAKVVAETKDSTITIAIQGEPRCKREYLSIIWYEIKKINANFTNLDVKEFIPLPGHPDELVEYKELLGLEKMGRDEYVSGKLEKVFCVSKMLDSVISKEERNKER

[2] = biological target: T2, CtRoco (Chlorobaculum tepidum, UniProt Q8KC98); test: SEC-SAXS, SEC-MALS, native MS, AUC, negative-stain EM (oligomeric shift); details: pre-incubated with 1 mM (SAXS, MALS, EM), pH 7.5, 5 mM MgCl2
T2 construct: gene CT1526; full length, residues 1-1102, N-terminal His-tag (pProEX), E. coli BL21(DE3); dimer nucleotide-free, monomer/dimer equilibrium with GppNHp
T2 sequence (Q8KC98 1-1102): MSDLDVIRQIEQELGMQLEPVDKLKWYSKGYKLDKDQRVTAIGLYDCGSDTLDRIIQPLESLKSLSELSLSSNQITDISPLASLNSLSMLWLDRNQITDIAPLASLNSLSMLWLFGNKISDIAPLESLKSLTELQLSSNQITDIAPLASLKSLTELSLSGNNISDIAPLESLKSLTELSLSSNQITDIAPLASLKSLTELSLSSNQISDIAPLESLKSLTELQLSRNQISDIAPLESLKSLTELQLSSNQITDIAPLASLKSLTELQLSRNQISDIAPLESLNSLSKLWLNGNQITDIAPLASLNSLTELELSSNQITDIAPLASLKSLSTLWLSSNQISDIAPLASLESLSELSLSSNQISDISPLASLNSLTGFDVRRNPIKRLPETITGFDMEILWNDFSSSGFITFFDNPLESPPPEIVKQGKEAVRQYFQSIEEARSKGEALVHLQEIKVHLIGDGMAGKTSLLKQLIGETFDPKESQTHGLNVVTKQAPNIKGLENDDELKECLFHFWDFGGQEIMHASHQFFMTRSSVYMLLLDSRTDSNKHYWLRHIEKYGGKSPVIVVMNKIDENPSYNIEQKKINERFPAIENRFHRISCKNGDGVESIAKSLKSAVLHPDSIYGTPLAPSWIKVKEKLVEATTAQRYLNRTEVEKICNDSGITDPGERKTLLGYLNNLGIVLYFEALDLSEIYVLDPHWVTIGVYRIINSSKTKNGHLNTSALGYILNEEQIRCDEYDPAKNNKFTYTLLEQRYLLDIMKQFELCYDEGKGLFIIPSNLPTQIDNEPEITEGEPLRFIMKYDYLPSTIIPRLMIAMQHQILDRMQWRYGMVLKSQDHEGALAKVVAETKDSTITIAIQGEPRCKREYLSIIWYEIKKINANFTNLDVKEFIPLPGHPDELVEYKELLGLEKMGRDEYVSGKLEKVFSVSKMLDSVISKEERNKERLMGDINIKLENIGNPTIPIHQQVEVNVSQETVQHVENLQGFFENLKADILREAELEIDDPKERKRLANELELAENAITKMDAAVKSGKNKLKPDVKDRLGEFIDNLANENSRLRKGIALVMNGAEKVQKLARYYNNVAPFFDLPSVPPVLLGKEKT

[3] = biological target: T3, CtRoc-COR (Chlorobaculum tepidum, UniProt Q8KC98); test: SEC-SAXS, SEC-MALS, native MS, SV-AUC (oligomeric shift); details: pre-incubated with 1 mM (SAXS, MALS), pH 7.5, 5 mM MgCl2
T3 construct: gene CT1526; Roc-COR domains, residues 412-946, N-terminal His-tag (pProEX), E. coli BL21(DE3); dimer nucleotide-free, about 65 kDa monomer
T3 sequence (Q8KC98 412-946): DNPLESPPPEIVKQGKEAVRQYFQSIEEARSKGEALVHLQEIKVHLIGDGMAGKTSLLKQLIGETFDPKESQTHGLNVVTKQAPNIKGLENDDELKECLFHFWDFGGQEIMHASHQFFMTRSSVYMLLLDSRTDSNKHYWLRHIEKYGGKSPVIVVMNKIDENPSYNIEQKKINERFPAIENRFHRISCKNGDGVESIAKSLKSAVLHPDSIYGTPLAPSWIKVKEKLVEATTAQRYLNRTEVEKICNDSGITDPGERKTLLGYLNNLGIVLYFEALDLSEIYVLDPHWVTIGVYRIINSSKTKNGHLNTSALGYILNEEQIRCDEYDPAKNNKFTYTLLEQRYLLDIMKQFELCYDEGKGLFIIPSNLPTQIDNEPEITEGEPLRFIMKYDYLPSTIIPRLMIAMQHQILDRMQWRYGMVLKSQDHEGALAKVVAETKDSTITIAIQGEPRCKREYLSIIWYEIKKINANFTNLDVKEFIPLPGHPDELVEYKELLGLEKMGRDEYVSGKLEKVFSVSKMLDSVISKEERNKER

[4] = biological target: T3, CtRoc-COR; test: SEC-SAXS (conformational change); details: pre-incubated with 1 mM, pH 7.5, 5 mM MgCl2
[5] = biological target: T2, CtRoco; test: SEC-SAXS, AUC, negative-stain EM (conformational and oligomeric change); details: pre-incubated with 1 mM (SAXS, EM), pH 7.5, 5 mM MgCl2

For `Nc1nc2c(ncn2[C@@H]2O[C@H](COP(=O)(O)OP(=O)(O)OP(=O)(O)O)[C@@H](O)[C@H]2O)c(=O)[nH]1` [GTP], which “stopped-flow Cy3/Cy5 FRET, monomerization” value [1] is on record?
Its value is “a fast decrease in FRET signal is observed upon mixing the protein”.

How did the “SEC-SAXS, SEC-MALS, native MS, AUC, negative-stain EM (oligomeric shift)” value [2] turn out when `Nc1nc2c(ncn2[C@@H]2O[C@H](COP(=O)(O)OP(=O)(O)NP(=O)(O)O)[C@@H](O)[C@H]2O)c(=O)[nH]1` [GppNHp] was run?
Its value is “As for CtRoc-COR this indicates that GppNHp induces monomerization”.

And the “SEC-SAXS, SEC-MALS, native MS, SV-AUC (oligomeric shift)” value [3]?
Its value is “the GTP mimic GppNHp induces monomerization in a concentration dependent manner”.

`Nc1nc2c(ncn2[C@@H]2O[C@H](COP(=O)(O)OP(=O)(O)O)[C@@H](O)[C@H]2O)c(=O)[nH]1` [GDP] was tested. Which “SEC-SAXS (conformational change)” value [4] did it give?
The value was “when CtRoc-COR is saturated with either GDP or GppNHp conformational changes are taking place”.

And the “SEC-SAXS, AUC, negative-stain EM (conformational and oligomeric change)” value [5]?
The value was “conformational changes occur in both the CtRoco GppNHp- and GDP-bound states”.
